Experimental data reported in patent publication US8518884B2, “Methods for treating atrial or ventricular arrhythmias by administering a G-protein alpha inhibitor” (Northwestern University, priority 2008, dated 2013).
Ends that are not written are not given here.

Columns and labels:
[1] = target: T1, M2R|Gαi/o interactions (Canis lupus familiaris, UniProt A0A8I3N4M6); assay: Gαx minigenes in the PLA: vagal-induced ERP shortening, AF inducibility, AF duration and dominant frequency 3 days after delivery; type: in vivo, dog
T1 construct: from tissue; host or cells: posterior left atrium of intact dogs (in vivo), 3 days after minigene injection and electroporation
T1 sequence (A0A8I3N4M6 1-466): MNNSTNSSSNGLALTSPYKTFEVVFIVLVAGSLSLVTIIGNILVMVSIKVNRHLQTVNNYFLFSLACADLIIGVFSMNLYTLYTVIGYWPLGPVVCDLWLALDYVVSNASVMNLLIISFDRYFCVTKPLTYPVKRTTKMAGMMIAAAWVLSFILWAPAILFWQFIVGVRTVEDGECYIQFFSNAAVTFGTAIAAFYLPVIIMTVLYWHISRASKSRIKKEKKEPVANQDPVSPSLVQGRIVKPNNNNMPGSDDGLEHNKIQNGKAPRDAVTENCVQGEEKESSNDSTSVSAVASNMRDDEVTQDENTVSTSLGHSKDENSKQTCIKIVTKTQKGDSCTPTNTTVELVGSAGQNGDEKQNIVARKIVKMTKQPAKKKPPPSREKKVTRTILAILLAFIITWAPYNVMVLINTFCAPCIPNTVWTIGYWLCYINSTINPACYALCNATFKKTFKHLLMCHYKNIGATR
Description: (§1) In a small number of pilot experiments (N=6), 1 mg of Gαi2ctp or GαRp minigene was injected subepicardially in the PLA (also see Results). In the remaining experiments, 15-20 mg of ct-Gαi2ctp (N=5), or 7-10 mg of Gαi2ctp+7-10 mg of Gαo1ctp (N=3), or GαRp (N=5) minigenes was injected in the PLA. Minigenes were made up to a volume of 4 ml and injected at multiple sites (6-8 equally spaced sites, 0.5-1 cm apart; a volume of approximately 0.5 ml was injected at each site) in the PLA so as to cover the entire area between the PVs. […] Immediately after gene injection, electroporation was performed at each site of injection as follows: two gold-plated, needle-style electrodes (10 mm length each) were placed at each gene injection site on the PLA, with an inter-electrode distance of 5 mm; electroporation with performed as previously described in the lung by Dean et al^14, with 8 pulses of is at […] (ECM 830, Harvard Bioscience, Holliston, Mass.). After minigene delivery, the chest was closed and the animal allowed to recover. Vagal stimulation and electrophysiological testing were not performed at baseline, in order to minimize damage to the vagus nerve.
Baseline study: Three days after the initial study, the chest was re-opened. […] The PV plaque was placed circumferentially around the vein while the other two plaques were laid flat on the PLA and LAA epicardium. Effective refractory periods (ERPs) were obtained from 5, 6, and 4 sites on the PV, PLA, and LAA plaque, respectively, at baseline.
Vagal stimulation: For vagal stimulation, the left cervical vagus nerve was isolated, a bipolar stainless steel electrode was attached to the nerve, and stimulation was performed at 20 Hz (15-20V, 2-8 ms) (Grass S44G, Astromed Inc, R1). A vagal response was defined as: 1) sinus node slowing by at least 25% or 2) PR prolongation by more than 25% or 2:1 AV block^13. ERP testing was performed in the presence and absence of VS.
(§2) Atrial Fibrillation Inducibility: AF was defined as an atrial arrhythmia that was irregular in at least one of the recording electrodes. Regular atrial arrhythmias—e.g., atrial flutter and atrial tachycardia—were excluded from AF analysis. AF inducibility was measured as the inducibility index and duration of AF episodes after a single extrastimulus^8,15. As previously described, the inducibility index was defined as the number of AF episodes lasting more than 5 seconds induced by a single atrial extrastimulus divided by the total number of single atrial extrastimuli delivered to measure each ERP (at least 3 for each site)^8. The inducibility index was compared for each maneuver. Mean AF duration for each intervention was also assessed. All data was acquired by a 128-channel mapping system (Prucka Cardiolab, GE, WI) at a sampling rate of 977 Hz. All AF episodes induced during extrastimulus testing were stored for offline analysis. After all ERPs had been obtained, minigene injection was performed as described below.
Offline Electrogram Analysis. Electrograms recorded during the maximum duration AF episodes obtained during extrastimulus testing were analyzed with dominant frequency (DF) analysis. DF is an estimation of activation rate calculated as the frequency with the most power in the power spectrum. The power spectrum is obtained from the Fast Fourier Transform of an electrogram after rectification and low pass filtering (20 Hz). These analyses were performed offline using Matlab (Mathworks, Natick, Mass.).
(§3) Effective Refractory Periods. For each ERP, the pacing protocol was composed of a drive train (S1) of eight beats with a cycle length of 400 ms followed by an extrastimulus (S2). The S2 was decremented by 10 ms until loss of capture. […] Pacing was performed at an output current twice the threshold required for consistent capture of the tissue. The mean ERP was used as the representative ERP for each of the three sites as well as the entire left atrium.

[2] = target: T1, M2R|Gαi/o interactions; assay: Gαx minigenes in the PLA: CCh-induced ERP shortening and AF 3 days after delivery; type: in vivo, dog
Description: as §1
CCh application: ERP shortening was assessed by direct application of CCh, a non-selective MR agonist, to the PLA. […] After each dose, ERP testing was performed in the PLA.
as §2, §3

[3] = tested on: left atrium; assay: Functional studies in pacing-induced CHF and control canine subjects: left atrial ERPs under autonomic manipulation; type: in vivo
Description: Canine subjects were divided into three groups. In group 1, CHF was induced by rapid ventricular pacing for 4 weeks (i.e. when the animals began to develop clinical heart failure. In group 2, pacing was performed for only 3 weeks. Group three were control canine subjects not subjected to rapid ventricular pacing. At the end of follow up period, high-density epicardial mapping was performed in the PVs, the PLA and the LAA. ERPs were obtained at multiple sites under the following conditions: a) baseline (BSL), b) left cervical vagal stimulation at 20 Hz (VS), c) beta-stimulation with isoproterenol (ISO), d) beta-blockade with propranolol (PROP) and e) beta-blockade+vagal stimulation (P+VS). VS caused significant mean ERP shortening in all three groups. […] PROP increased the VS effect on ERP in normal controls, but produced an attenuation of this effect in the CHF group (SEE FIG. 37). In this CHF model, after 4 weeks of pacing, an increased vagal effect on atrial refractoriness, an increased cumulative sympathetic effect, and a change in the sympatho-vagal interactions of the left atrium were observed. After 3 weeks of pacing, there is pronounced autonomic remodeling, with evidence of P as well S nerve upregulation in the PVs and left atrium. Both P and S upregulation are more pronounced in the PLA (and to a lesser extent in the PVs) than in the rest of the left atrium. While vagal responsiveness in the left atrium is unaltered at 3 weeks of pacing, it increases after 4 weeks of pacing. […] The autonomic remodeling becomes more pronounced with increasing duration of pacing. […] The increase in β1 binding is consistent with the increase in sympathetic innervation. […] The P upregulation noted in the left atrium in CHF is a compensatory response to S upregulation that occurs in response to CHF. […] However, since normal atria are more densely innervated with vagal fibers (than the ventricle) and also contain a significant amount of IKAch, the compensatory response is likely to be more vigorous in the atrium. The compensatory increase in vagal innervations, and resulting increase in IKAch, may contribute to increased AF substrate.

[4] = tested on: Gαi; assay: cp-Gα peptide delivery to the PLA with electroporation/sonoporation: ERPs and AF inducibility with vagal stimulation; type: in vivo, canine
Description: High-density epicardial mapping was performed in the PVs (2×2 electrodes), the PLA (7×3 electrodes) and the left atrial appendage (LAA) (7×3 electrodes) of canine subjects. Effective refractory periods (ERPs) were obtained at baseline and in response left cervical vagal stimulation (VS) (20 Hz). Cp-Gαi2 peptide (200-330 nM) was then applied topically to the epicardial aspect of the PLA in a canine subgroup. Cp-Gαi3 peptide (200-330 nM) was then applied topically to the epicardial aspect of the PLA of a second subgroup. Electroporation was performed after the application of peptide to enhance intracellular delivery of the peptide. ERPs were then re-measured in the presence and absence of VS.
In canine subjects, high-density epicardial mapping was performed in the PVs (2×2 electrodes), the PLA (7×3 electrodes) and the left atrial appendage (LAA) (7×3 electrodes). Effective refractory periods (ERPs) were obtained at baseline and in response left cervical vagal stimulation (VS) (20 Hz). FLAG-tcp-Gα peptides (200 nM-3 μM of cp-Gαi1/2 (N=8 canine subjects), cp-Gαi3 (N=4 canine subjects), or random-sequence cp-GαoR peptide (N=3 canine subjects) were injected into the PLA epicardium of the canine subjects followed by either sonoporation or electroporation. In a subgroup of the canine subjects, sonoporation or electroporation alone was performed without introduction of cp-Gαi peptide. ERPs were then re-measured in the presence and absence of VS. In a separate set of control animals, ERPs were measured before and after the administration of systemic autonomic blockade with propranolol (0.2 mg/kg)+atropine (0.04 mg/kg).

[5] = 200 nM-3 μM injected into PLA + sono/electroporation

Question: With IKNNLKDCGLF [Gαi2ctp] as the molecule, how does the “vagal-induced ERP shortening in the PLA” value ([1]; 3 days after minigene delivery, mean±SE) read?
Answer: 19.5 ± 5.0 ms

Question: What about the “vagal-induced ERP shortening in the PLA” value ([1]; compared to GαRcpt, FIG. 29A) of the same molecule?
Answer: attenuated

Question: And the “vagal-induced ERP shortening in the PV and LAA” value ([1]; compared to GαRp dogs)?
Answer: no significant difference

Question: And the “AF inducibility in response to VS” value ([1]; inducibility index, vs. GαRp dogs)?
Answer: significantly less

Question: What about the “VS-induced increase in AF dominant frequency (DF)” value ([1]; vs. GαRp dogs) of the same molecule?
Answer: significantly less

Question: What about the “mean AF duration in response to VS” value ([1]; vs. GαRp dogs) of the same molecule?
Answer: significantly less

Question: What about the “CCh-induced ERP shortening in the PLA” value ([2]; 3 μM, 10 μM CCh, compared to GαRp dogs) of the same molecule?
Answer: significantly less

Question: And the “CCh-induced ERP shortening in the PLA” value ([2]; 30 μM CCh, compared to GαRp dogs)?
Answer: no significant difference

Question: What about the “CCh-induced ERP shortening in the PLA” value ([2]; CCh 3, 10 and 30 μM, compared to baseline ERP) of the same molecule?
Answer: only at 30 μM CCh

Question: What about the “AF duration in response to CCh” value ([2]; vs. GαRp dogs) of the same molecule?
Answer: significantly less

Question: What about the “AF inducibility in response to CCh” value ([2]; vs. GαRp dogs) of the same molecule?
Answer: significantly less

Question: For CC(C)NCC(O)COc1cccc2ccccc12 (stereo not drawn) [PROP, propranolol], which “effect on ERPs” value ([3]; CHF canine subjects) is on record?
Answer: ERP lengthening

Question: What about the “effect on the VS effect on ERP” value ([3]; CHF group) of the same molecule?
Answer: attenuation

Question: What about the “effect on ERPs” value ([3]; control canine subjects) of the same molecule?
Answer: significant shortening of ERPs

Question: What about the “effect on the VS effect on ERP” value ([3]; normal controls) of the same molecule?
Answer: increased

Question: Which “VS-induced ERP shortening in the LAA” value [4, 5] does the source give for “cp-Gαi3: cell-penetrating poly-arginine tagged Gαi3 C-terminal peptide (IKNNLKECGLY; also: cell-penetrating poly-arginine tag, length and site not given here)” here?
Answer: reduced

Question: And the “VS-induced ERP shortening in the PLA” value [4, 5]?
Answer: eliminated

Question: And the “VS induced ERP shortening” value ([4]; 200-330 nM topical to PLA + electroporation, PLA, PV and LAA)?
Answer: significantly attenuated
